{"source": "patent US20200071380A1", "about": "“COMBINATION THERAPIES COMPRISING SIRP ALPHA-BASED CHIMERIC PROTEINS” (Shattuck Labs, Inc., priority 2018, published 2020)", "key": {"[1]": {"test_system": "A431, HCC827, K562, HCC1954 and MCF7 cells", "test": "Macrophage phagocytosis of EGFR/HER2 human tumor cell line panel", "format": "cell-based", "settings": "variety of human tumor cell lines"}, "[2]": {"test_system": "low EGFR-expressing Chronic myeloid leukemia (CML) cell line (K562)", "test": "Macrophage engulfment of K562 cells", "format": "cell-based, human", "settings": "K562, negative control cell line"}, "[3]": {"test_system": "low Her2-expressing breast cancer cell line (MCF7)", "test": "Macrophage engulfment of MCF7 cells", "format": "cell-based, human", "settings": "HER2LOW cell line MCF7"}, "RAW264.7-ISG cells": {"test_system": "RAW264.7-ISG cells", "test": "RAW264.7-ISG interferon reporter cells co-cultured with A20 lymphoma cells", "format": "cell-based, murine", "settings": "co-culture with A20 lymphoma cells, 24 hours", "description": "FIG. 8D: Macrophage:Toledo lymphoma co-cultures were harvested 2 hours into phagocytosis assays in the presence of rituximab ([…]), SIRPα-Fc-CD40L ([…]), or the combination of both agents. Macrophages were isolated by CD11b+FACS, RNA was prepared, cDNA synthesized, and gene expression (IFNa1, IFNb1, CD80, and CD86) assessed by qRT-PCR. Fold change was calculated using DDCT and values obtained from the housekeeping gene ACTB, and the corresponding values from untreated samples. […] After 2 hours, co-cultures were isolated from tissue culture vessels and were stained with a fluorescently conjugated CD11b antibody to discriminate macrophages. Cells were then assessed by flow cytometry for the co-localization of fluorescent signal from both cells types. […] After 24-hours type I interferon induced luminescence was assessed using a luminometer. The maximum luminescence (RLU) from each experiment was set to 1, and all other samples were normalized accordingly. […]\nAdditionally, a macrophage reporter system was used to detect activation. […] After 24 hours, culture supernatant was collected and assessed for luciferase activity, which would indicate activation of a type I interferon response in the RAW-ISG reporter cells. […]"}, "parental CHOK1 cells": {"test_system": "parental CHOK1 cells", "test": "Flow cytometry binding to parental CHOK1 cells", "description": "Scale is shown and yellow arrows correspond with each identified monomer. A schematic of the hexamer species is shown to the right, depicting dimerization of the Fc domain and trimerization of the CD40L domain. […] Recombinant hSIRPα-Fc, hCD40L-Fc, and hIgG1 were used as positive controls. […] In both panels, the CHOK1 Parental is on the left and the CHOK1/hCD47 is on the right. […] For both graphs, the CHOK1 Parental is on the bottom. […] In this figure, the control is the top curve, the SIRPα-Fc-CD40L is the middle curve, and the anti-CD47 is the bottom curve.\nThe extracellular domain (ECD) of SIRPα and the ECD of CD40L were fused via an antibody Fc domain to generate SIRPαECD-Fc-CD40LECD chimeric proteins. When human proteins were used, the chimeric protein is referred to as hSIRPα-Fc-CD40L; when murine proteins were used, the chimeric protein is referred to as and mSIRPα-Fc-CD40L. […] The purified protein was then analyzed for the presence of each individual domain by Western blotting using anti-SIRPα, anti-Fc, and anti-CD40L antibodies (FIG. 3A, bottom). […] Next, binding affinities for SIRPα-Fc-CD40L to recombinant CD47, CD40, or Fc receptors were evaluated by surface plasmon resonance (SPR). […] A functional ELISA evaluated whether SIRPα-Fc-CD40L could outcompete a commercially available single-sided SIRPα-Fc control for binding to recombinant CD47 (FIG. 3H)."}, "splenic dendritic cells": {"test_system": "splenic dendritic cells", "test": "In vivo splenic dendritic cell activation", "parameters": "species or system mice", "settings": "versus antibody treated groups", "description": "For each panel, the samples are (left to right): untreated, sheep RBCs, αCD47 (MIAP301), αSIRPα (P84), mSIRPα-Fc-CD40L, mSIRPα-Fc-CD40L (24 Hrs), and αCD47 (MIAP301) (24 hrs). FIG. 9B is a quantitation of in vivo dendritic cell activation corresponding to FIG. 9A. Shown is the absolute percent of CD4+ and CD8+ dendritic cells; also gated on CD11c and DC1R2. In FIG. 9B, for each panel, the samples are (left to right): untreated, sheep RBCs, αCD47 (MIAP301), αSIRPα (P84), SIRPα-Fc-CD40L (150 μg), SIRPα-Fc-CD40L (300 μg), SIRPα-Fc-CD40L (300 μg) (24 Hrs), and αCD47 (MIAP301) (24 hrs).\nAn in vivo assay to examine SIRPα/CD47 function in mice was describe in Yi et al., “Splenic Dendritic Cells Survey Red Blood Cells for Missing Self-CD47 to Trigger Adaptive Immune Responses. Immunity. 2015;43(4):764-75) (the contents of which is incorporated by reference in its entirety). This assay detects the activation status of splenic dendritic cells in response to SIRPa/CD47 inhibitors or to infused sheep red blood cells (RBC).\nAfter 6 or 24 hours, mice were euthanized and their spleens excised, dissociated, and assessed by flow cytometry for populations of activated CD4+ dendritic cells (DCs) (FIG. 9A, left panel) or CD8+dendritic cells (FIG. 9A, right panel); both populations of dendritic cells were also positive for MHC II (I-Ab), CD11c, and DC1R2."}}, "data": [{"substance": "SIRPα-Fc-CD40L: Generic name of the SIRPα ECD-Fc-CD40L ECD chimeric protein; human or murine version depending on the test system", "values": [{"measurement": "macrophage phagocytosis of tumor cells", "setting": "[1]", "value": "stimulated macrophage phagocytosis of tumor cells"}, {"measurement": "phagocytic activity", "setting": "[2]", "value": "no phagocytic activity"}, {"measurement": "phagocytosis", "setting": "[3]", "value": "demonstrated monotherapy activity"}, {"measurement": "type I interferon response, interferon gene-driven luciferase activity", "setting": "RAW264.7-ISG cells", "value": "stimulates an increase in interferon gene-driven luciferase activity"}, {"measurement": "binding to parental CHOK1 cells", "setting": "parental CHOK1 cells", "value": "not to parental CHOK1 cells"}, {"measurement": "proportion of overall splenic DCs", "setting": "splenic dendritic cells", "value": "higher proportion of overall splenic DCs than was observed in the antibody treated groups"}]}]}
